Laboratory results: patent US20180016593A1, “HERBICIDE-RESISTANT SUNFLOWER PLANTS, POLYNUCLEOTIDES ENCODING HERBICIDE-RESISTANT ACETOHYDROXYACID SYNTHASE LARGE SUBUNIT PROTEINS, AND METHODS OF USE” (priority 2005, published 2018)
Like-named read-outs stand apart in the source and are kept apart here.

Legend:
[1] = test system: sunflower TH6 (Hybrid, A122T); format: in vivo, Helianthus annuus; settings: 14 DAT
Protocol: (§1) A greenhouse study was conducted to quantify and contrast the imazapir sensivity of the mutants A122T and A205V in different genetic backgrounds at the whole plant level in sunflower. Seeds of the different sunflower lines that were used in this study were obtained under field conditions.
(§2) Seeds were sown in Petri dishes and, after germination, plantlets were transplanted to pots of 10 cm of diameter in a potting media consisting of equal parts of vermiculite, soil and sand. Plants were grown in a greenhouse under natural light conditions supplemented with 400 W sodium halide lamps to provide a 16 hrs daylength. Day/night temperatures were 25 and 20° C., respectively. At the V2 stage 10 plants of each genotype were randomly assigned to each treatment consisting of […] imazapir doses (0, 40, 80, 160, 240, 320, 400 and 480 g ai/ha), and a zero-time biomass determination. Experiment was arranged as a randomized block design with a full factorial (sunflower line×treatment) arrangement of treatments and 10 replications.
(§3) On the day of herbicide application ten plants of each genotype were cut at the cotyledonal node and dried at 60° C. for 48 hrs zero-time for dried weight determination.
(§4) Height was determined as the distance between the cotyledonal node and the apex of each plant. For root biomass determination, each plant was taken from the pot and the potting media was washed out from the roots. Above ground biomass data from each line were converted to biomass accumulation after application by subtracting the appropriate average zero-time biomass from each sample. Dry biomass data were converted to percentages of the untreated control plants within each line to allow direct comparisons between groups. […]

[2] = test system: sunflower lines carrying the A122T mutation; format: in vivo, Helianthus annuus; settings: 14 DAT; for biomass accumulation, Dif A122T-A205V / plant height, Dif A122T-A205V / root dry weight, Dif with A122T-A205V: A122T mean minus A205V mean; for biomass accumulation, Dif with Control / plant height, Dif with Control / root dry weight, Dif with Control: A122T mean
Protocol: as §1, §2, §3, §4

Question: How did the “Phytotoxicity Index” value ([1]; 0.5x (40 g ai/ha)) turn out when `CC(C)C1(C)N=C(c2ncccc2C(=O)O)NC1=O` (stereo not drawn) [imazapyr] was run?
Answer: 0.5

Question: And the “biomass accumulation (above ground dry weight)” value ([1]; 0.5x (40 g ai/ha))?
Answer: 100 % of untreated plots

Question: What about the plant height ([1]; 0.5x (40 g ai/ha)) of the same compound?
Answer: 99.2 % of untreated plots

Question: And the root dry weight ([1]; 0.5x (40 g ai/ha))?
Answer: 100 % of untreated plots

Question: And the “Phytotoxicity Index” value ([1]; 1x (80 g ai/ha))?
Answer: 0.5

Question: What about the “biomass accumulation (above ground dry weight)” value ([1]; 1x (80 g ai/ha)) of the same compound?
Answer: 97.2 % of untreated plots

Question: And the plant height ([1]; 1x (80 g ai/ha))?
Answer: 98.6 % of untreated plots

Question: What about the root dry weight ([1]; 1x (80 g ai/ha)) of the same compound?
Answer: 98.1 % of untreated plots

Question: And the “Phytotoxicity Index” value ([1]; 2x (160 g ai/ha))?
Answer: 0.5

Question: And the “biomass accumulation (above ground dry weight)” value ([1]; 2x (160 g ai/ha))?
Answer: 97.9 % of untreated plots

Question: What about the plant height ([1]; 2x (160 g ai/ha)) of the same compound?
Answer: 100.3 % of untreated plots

Question: What about the root dry weight ([1]; 2x (160 g ai/ha)) of the same compound?
Answer: 98.2 % of untreated plots

Question: What about the “Phytotoxicity Index” value ([1]; 3x (240 g ai/ha)) of the same compound?
Answer: 0.5

Question: What about the “biomass accumulation (above ground dry weight)” value ([1]; 3x (240 g ai/ha)) of the same compound?
Answer: 98.2 % of untreated plots

Question: And the plant height ([1]; 3x (240 g ai/ha))?
Answer: 99.8 % of untreated plots

Question: What about the root dry weight ([1]; 3x (240 g ai/ha)) of the same compound?
Answer: 79.3 % of untreated plots

Question: And the “Phytotoxicity Index” value ([1]; 4x (320 g ai/ha))?
Answer: 0.5

Question: What about the “biomass accumulation (above ground dry weight)” value ([1]; 4x (320 g ai/ha)) of the same compound?
Answer: 97.8 % of untreated plots

Question: And the plant height ([1]; 4x (320 g ai/ha))?
Answer: 101.0 % of untreated plots

Question: And the root dry weight ([1]; 4x (320 g ai/ha))?
Answer: 78.4 % of untreated plots

Question: And the “Phytotoxicity Index” value ([1]; 5x (400 g ai/ha))?
Answer: 0.5

Question: What about the “biomass accumulation (above ground dry weight)” value ([1]; 5x (400 g ai/ha)) of the same compound?
Answer: 85.1 % of untreated plots

Question: And the plant height ([1]; 5x (400 g ai/ha))?
Answer: 87.0 % of untreated plots

Question: And the root dry weight ([1]; 5x (400 g ai/ha))?
Answer: 85.8 % of untreated plots

Question: What about the “Phytotoxicity Index” value ([1]; 6x (480 g ai/ha)) of the same compound?
Answer: 0.5

Question: What about the “biomass accumulation (above ground dry weight)” value ([1]; 6x (480 g ai/ha)) of the same compound?
Answer: 79.5 % of untreated plots

Question: What about the plant height ([1]; 6x (480 g ai/ha)) of the same compound?
Answer: 79.6 % of untreated plots

Question: What about the root dry weight ([1]; 6x (480 g ai/ha)) of the same compound?
Answer: 57.3 % of untreated plots

Question: And the “biomass accumulation, Dif A122T-A205V” value ([2]; 0.5x (40 g ai/ha))?
Answer: 4.3 % of untreated plots

Question: And the “plant height, Dif A122T-A205V” value ([2]; 0.5x (40 g ai/ha))?
Answer: 4.9 % of untreated plots

Question: What about the “root dry weight, Dif with A122T-A205V” value ([2]; 0.5x (40 g ai/ha)) of the same compound?
Answer: 12.7 % of untreated plots

Question: What about the “biomass accumulation, Dif A122T-A205V” value ([2]; 1x (80 g ai/ha)) of the same compound?
Answer: 14.5 % of untreated plots

Question: And the “plant height, Dif A122T-A205V” value ([2]; 1x (80 g ai/ha))?
Answer: 9.4 % of untreated plots

Question: And the “root dry weight, Dif with A122T-A205V” value ([2]; 1x (80 g ai/ha))?
Answer: 26.7 % of untreated plots

Question: What about the “biomass accumulation, Dif A122T-A205V” value ([2]; 2x (160 g ai/ha)) of the same compound?
Answer: 33.2 % of untreated plots

Question: And the “plant height, Dif A122T-A205V” value ([2]; 2x (160 g ai/ha))?
Answer: 28.0 % of untreated plots

Question: And the “root dry weight, Dif with A122T-A205V” value ([2]; 2x (160 g ai/ha))?
Answer: 43.6 % of untreated plots

Question: And the “biomass accumulation, Dif A122T-A205V” value ([2]; 3x (240 g ai/ha))?
Answer: 45.3 % of untreated plots

Question: And the “plant height, Dif A122T-A205V” value ([2]; 3x (240 g ai/ha))?
Answer: 45.3 % of untreated plots

Question: And the “root dry weight, Dif with A122T-A205V” value ([2]; 3x (240 g ai/ha))?
Answer: 50.2 % of untreated plots

Question: And the “biomass accumulation, Dif A122T-A205V” value ([2]; 4x (320 g ai/ha))?
Answer: 52.4 % of untreated plots

Question: What about the “plant height, Dif A122T-A205V” value ([2]; 4x (320 g ai/ha)) of the same compound?
Answer: 59.9 % of untreated plots

Question: And the “root dry weight, Dif with A122T-A205V” value ([2]; 4x (320 g ai/ha))?
Answer: 50.3 % of untreated plots

Question: What about the “biomass accumulation, Dif A122T-A205V” value ([2]; 5x (400 g ai/ha)) of the same compound?
Answer: 46.9 % of untreated plots

Question: And the “plant height, Dif A122T-A205V” value ([2]; 5x (400 g ai/ha))?
Answer: 57.8 % of untreated plots

Question: And the “root dry weight, Dif with A122T-A205V” value ([2]; 5x (400 g ai/ha))?
Answer: 47.9 % of untreated plots

Question: What about the “biomass accumulation, Dif A122T-A205V” value ([2]; 6x (480 g ai/ha)) of the same compound?
Answer: 44.6 % of untreated plots

Question: What about the “plant height, Dif A122T-A205V” value ([2]; 6x (480 g ai/ha)) of the same compound?
Answer: 54.0 % of untreated plots

Question: And the “root dry weight, Dif with A122T-A205V” value ([2]; 6x (480 g ai/ha))?
Answer: 37.3 % of untreated plots

Question: What about the “biomass accumulation, Dif with Control” value ([2]; 0.5x (40 g ai/ha)) of the same compound?
Answer: 1.1 % of untreated plots

Question: And the “plant height, Dif with Control” value ([2]; 0.5x (40 g ai/ha))?
Answer: 0.6 % of untreated plots

Question: What about the “root dry weight, Dif with Control” value ([2]; 0.5x (40 g ai/ha)) of the same compound?
Answer: 0.1 % of untreated plots

Question: And the “biomass accumulation, Dif with Control” value ([2]; 1x (80 g ai/ha))?
Answer: 3.2 % of untreated plots

Question: And the “plant height, Dif with Control” value ([2]; 1x (80 g ai/ha))?
Answer: 1.4 % of untreated plots

Question: And the “root dry weight, Dif with Control” value ([2]; 1x (80 g ai/ha))?
Answer: 2.5 % of untreated plots

Question: And the “biomass accumulation, Dif with Control” value ([2]; 2x (160 g ai/ha))?
Answer: 5.1 % of untreated plots

Question: And the “plant height, Dif with Control” value ([2]; 2x (160 g ai/ha))?
Answer: 2.7 % of untreated plots

Question: And the “root dry weight, Dif with Control” value ([2]; 2x (160 g ai/ha))?
Answer: 5.9 % of untreated plots

Question: What about the “biomass accumulation, Dif with Control” value ([2]; 3x (240 g ai/ha)) of the same compound?
Answer: 7.2 % of untreated plots

Question: What about the “plant height, Dif with Control” value ([2]; 3x (240 g ai/ha)) of the same compound?
Answer: 4.4 % of untreated plots

Question: And the “root dry weight, Dif with Control” value ([2]; 3x (240 g ai/ha))?
Answer: 10.6 % of untreated plots

Question: What about the “biomass accumulation, Dif with Control” value ([2]; 4x (320 g ai/ha)) of the same compound?
Answer: 12.2 % of untreated plots

Question: And the “plant height, Dif with Control” value ([2]; 4x (320 g ai/ha))?
Answer: 6.3 % of untreated plots

Question: What about the “root dry weight, Dif with Control” value ([2]; 4x (320 g ai/ha)) of the same compound?
Answer: 18.6 % of untreated plots

Question: What about the “biomass accumulation, Dif with Control” value ([2]; 5x (400 g ai/ha)) of the same compound?
Answer: 20.7 % of untreated plots

Question: And the “plant height, Dif with Control” value ([2]; 5x (400 g ai/ha))?
Answer: 10.2 % of untreated plots
